The kinase profiling compilation of Christmann-Franck et al. (2016)

What was measured:
Assay in all cases: radiometric filter-binding kinase assay, Kinase HotSpot
Details in all cases: compound 0.5 µM; ATP 10 µM
[1] = molecular target: ABL2 (human) (UniProt P42684)
[2] = molecular target: ALK (human) (UniProt Q9UM73)
[3] = molecular target: AURKB (human) (UniProt Q96GD4)
[4] = molecular target: AURKC (human) (UniProt Q9UQB9)
[5] = molecular target: CAMK2A (human) (UniProt Q9UQM7)
[6] = molecular target: CAMKK1 (human) (UniProt Q8N5S9)
[7] = molecular target: CDK7 CCNH MNAT1 (human) (UniProt P50613+P51948+P51946)
[8] = molecular target: CLK2 (human) (UniProt P49760)
[9] = molecular target: CSNK1G3 (human) (UniProt Q9Y6M4)
[10] = molecular target: CSNK2A2 (human) (UniProt P19784)
[11] = molecular target: DCLK2 (human) (UniProt Q8N568)
[12] = molecular target: DDR2 (human) (UniProt Q16832)
[13] = molecular target: DSTYK (human) (UniProt Q6XUX3)
DSTYK (human), sequence (Q6XUX3 whole entry, looked up): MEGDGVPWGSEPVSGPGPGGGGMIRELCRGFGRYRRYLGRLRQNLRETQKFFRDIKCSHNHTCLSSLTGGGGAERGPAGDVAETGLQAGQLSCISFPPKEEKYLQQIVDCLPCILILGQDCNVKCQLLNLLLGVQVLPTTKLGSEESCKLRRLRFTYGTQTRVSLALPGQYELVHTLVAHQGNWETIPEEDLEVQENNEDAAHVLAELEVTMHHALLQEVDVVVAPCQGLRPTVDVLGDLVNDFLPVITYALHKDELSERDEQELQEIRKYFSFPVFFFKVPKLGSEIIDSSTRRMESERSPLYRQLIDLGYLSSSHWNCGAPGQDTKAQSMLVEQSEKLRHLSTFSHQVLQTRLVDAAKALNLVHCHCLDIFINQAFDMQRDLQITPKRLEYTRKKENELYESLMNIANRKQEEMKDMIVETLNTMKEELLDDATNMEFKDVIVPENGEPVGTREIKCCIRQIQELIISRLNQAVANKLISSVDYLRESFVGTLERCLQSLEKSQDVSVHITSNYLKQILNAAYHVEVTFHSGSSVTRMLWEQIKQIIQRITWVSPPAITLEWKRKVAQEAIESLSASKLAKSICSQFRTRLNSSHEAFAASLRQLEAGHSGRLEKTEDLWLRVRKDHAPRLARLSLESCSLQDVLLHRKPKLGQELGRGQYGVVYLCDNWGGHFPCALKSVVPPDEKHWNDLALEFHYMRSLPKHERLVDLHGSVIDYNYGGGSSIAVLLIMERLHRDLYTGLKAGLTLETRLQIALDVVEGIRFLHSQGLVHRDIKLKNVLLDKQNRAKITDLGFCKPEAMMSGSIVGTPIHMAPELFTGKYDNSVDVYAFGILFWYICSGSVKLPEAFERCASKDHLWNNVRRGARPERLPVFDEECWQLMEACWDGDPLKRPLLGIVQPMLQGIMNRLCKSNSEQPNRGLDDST

[14] = molecular target: DYRK1A (human) (UniProt Q13627)
[15] = molecular target: EPHA1 (human) (UniProt P21709)
[16] = molecular target: FGFR2 (human) (UniProt P21802)
[17] = molecular target: FGR (human) (UniProt P09769)
FGR (human), sequence (P09769 whole entry, looked up): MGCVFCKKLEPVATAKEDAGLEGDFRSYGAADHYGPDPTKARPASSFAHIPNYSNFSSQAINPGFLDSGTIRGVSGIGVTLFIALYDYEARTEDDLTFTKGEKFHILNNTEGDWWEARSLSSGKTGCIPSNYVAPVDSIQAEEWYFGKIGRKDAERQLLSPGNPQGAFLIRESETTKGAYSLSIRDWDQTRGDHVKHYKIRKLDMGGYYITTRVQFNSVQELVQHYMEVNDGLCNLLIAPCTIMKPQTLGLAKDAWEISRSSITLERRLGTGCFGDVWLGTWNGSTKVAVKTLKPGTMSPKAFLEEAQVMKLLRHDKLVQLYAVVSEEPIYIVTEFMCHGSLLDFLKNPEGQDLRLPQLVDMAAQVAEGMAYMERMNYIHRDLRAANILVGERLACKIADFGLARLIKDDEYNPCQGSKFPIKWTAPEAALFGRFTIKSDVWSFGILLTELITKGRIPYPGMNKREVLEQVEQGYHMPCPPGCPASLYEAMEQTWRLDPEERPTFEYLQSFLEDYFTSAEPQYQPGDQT

[18] = molecular target: FLT3 (human) (UniProt P36888)
[19] = molecular target: HIPK2 (human) (UniProt Q9H2X6)
[20] = molecular target: JAK2 JH1 JH2 (human) (UniProt O60674)
[21] = molecular target: KIT (human) (UniProt P10721)
KIT (human), sequence (P10721 whole entry, looked up): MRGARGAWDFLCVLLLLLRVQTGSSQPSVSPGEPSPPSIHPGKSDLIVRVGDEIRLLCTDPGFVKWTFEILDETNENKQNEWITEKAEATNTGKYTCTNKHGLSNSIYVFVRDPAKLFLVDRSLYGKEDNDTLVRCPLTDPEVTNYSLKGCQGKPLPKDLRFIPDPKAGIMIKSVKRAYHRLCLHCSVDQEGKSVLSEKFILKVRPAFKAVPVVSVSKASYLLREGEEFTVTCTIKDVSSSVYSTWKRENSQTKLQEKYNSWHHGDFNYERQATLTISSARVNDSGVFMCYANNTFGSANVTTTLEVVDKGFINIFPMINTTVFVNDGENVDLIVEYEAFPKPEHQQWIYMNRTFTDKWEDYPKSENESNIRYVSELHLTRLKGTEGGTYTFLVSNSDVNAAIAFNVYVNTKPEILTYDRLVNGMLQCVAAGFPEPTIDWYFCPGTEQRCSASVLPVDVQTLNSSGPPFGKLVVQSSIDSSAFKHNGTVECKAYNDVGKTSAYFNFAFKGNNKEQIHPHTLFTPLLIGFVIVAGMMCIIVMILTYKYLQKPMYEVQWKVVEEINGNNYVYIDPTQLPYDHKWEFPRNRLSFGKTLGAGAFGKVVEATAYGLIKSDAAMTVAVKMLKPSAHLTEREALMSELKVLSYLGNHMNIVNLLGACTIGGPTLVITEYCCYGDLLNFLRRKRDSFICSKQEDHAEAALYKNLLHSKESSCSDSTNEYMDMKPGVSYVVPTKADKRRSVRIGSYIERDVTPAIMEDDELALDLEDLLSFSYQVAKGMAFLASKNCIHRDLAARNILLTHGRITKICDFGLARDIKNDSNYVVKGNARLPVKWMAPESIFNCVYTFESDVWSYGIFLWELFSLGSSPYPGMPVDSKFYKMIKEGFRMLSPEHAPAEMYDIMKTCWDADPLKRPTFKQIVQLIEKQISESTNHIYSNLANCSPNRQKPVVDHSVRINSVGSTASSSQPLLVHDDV

[22] = molecular target: LTK (human) (UniProt P29376)
[23] = molecular target: MAP2K2 (human) (UniProt P36507)
[24] = molecular target: MAP3K14 (human) (UniProt Q99558)
MAP3K14 (human), sequence (Q99558 whole entry, looked up): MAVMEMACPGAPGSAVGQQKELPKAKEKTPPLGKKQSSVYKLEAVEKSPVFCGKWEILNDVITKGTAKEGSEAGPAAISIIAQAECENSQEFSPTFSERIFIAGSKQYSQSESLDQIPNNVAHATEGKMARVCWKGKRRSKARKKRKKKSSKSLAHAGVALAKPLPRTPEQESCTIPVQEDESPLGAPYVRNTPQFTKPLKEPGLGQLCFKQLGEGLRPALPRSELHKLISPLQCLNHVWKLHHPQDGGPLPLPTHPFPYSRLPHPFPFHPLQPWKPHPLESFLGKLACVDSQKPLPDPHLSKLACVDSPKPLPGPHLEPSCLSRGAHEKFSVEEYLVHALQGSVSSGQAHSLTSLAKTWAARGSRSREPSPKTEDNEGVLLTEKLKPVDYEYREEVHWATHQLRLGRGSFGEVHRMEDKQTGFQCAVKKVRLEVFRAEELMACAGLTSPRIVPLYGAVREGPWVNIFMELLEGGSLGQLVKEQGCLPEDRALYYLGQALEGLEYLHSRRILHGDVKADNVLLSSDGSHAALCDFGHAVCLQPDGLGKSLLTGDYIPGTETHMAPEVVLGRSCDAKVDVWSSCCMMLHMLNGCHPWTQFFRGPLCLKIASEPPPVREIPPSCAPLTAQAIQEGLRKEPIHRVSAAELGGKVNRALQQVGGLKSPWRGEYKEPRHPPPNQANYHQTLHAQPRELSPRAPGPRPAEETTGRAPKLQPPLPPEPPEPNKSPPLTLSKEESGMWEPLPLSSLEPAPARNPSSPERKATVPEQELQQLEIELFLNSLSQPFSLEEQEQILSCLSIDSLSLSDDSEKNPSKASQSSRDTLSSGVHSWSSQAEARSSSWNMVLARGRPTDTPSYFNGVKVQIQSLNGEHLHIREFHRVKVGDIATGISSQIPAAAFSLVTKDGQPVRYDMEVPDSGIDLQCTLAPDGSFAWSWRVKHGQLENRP

[25] = molecular target: MAPK9 (human) (UniProt P45984)
[26] = molecular target: MST1R (human) (UniProt Q04912)
[27] = molecular target: MYLK (human) (UniProt Q15746)
[28] = molecular target: OXSR1 (human) (UniProt O95747)
[29] = molecular target: PASK (human) (UniProt Q96RG2)
[30] = molecular target: PLK2 (human) (UniProt Q9NYY3)
[31] = molecular target: PRKACA (human) (UniProt P17612)
[32] = molecular target: PRKCE (human) (UniProt Q02156)
[33] = molecular target: PRKD1 (human) (UniProt Q15139)
PRKD1 (human), sequence (Q15139 whole entry, looked up): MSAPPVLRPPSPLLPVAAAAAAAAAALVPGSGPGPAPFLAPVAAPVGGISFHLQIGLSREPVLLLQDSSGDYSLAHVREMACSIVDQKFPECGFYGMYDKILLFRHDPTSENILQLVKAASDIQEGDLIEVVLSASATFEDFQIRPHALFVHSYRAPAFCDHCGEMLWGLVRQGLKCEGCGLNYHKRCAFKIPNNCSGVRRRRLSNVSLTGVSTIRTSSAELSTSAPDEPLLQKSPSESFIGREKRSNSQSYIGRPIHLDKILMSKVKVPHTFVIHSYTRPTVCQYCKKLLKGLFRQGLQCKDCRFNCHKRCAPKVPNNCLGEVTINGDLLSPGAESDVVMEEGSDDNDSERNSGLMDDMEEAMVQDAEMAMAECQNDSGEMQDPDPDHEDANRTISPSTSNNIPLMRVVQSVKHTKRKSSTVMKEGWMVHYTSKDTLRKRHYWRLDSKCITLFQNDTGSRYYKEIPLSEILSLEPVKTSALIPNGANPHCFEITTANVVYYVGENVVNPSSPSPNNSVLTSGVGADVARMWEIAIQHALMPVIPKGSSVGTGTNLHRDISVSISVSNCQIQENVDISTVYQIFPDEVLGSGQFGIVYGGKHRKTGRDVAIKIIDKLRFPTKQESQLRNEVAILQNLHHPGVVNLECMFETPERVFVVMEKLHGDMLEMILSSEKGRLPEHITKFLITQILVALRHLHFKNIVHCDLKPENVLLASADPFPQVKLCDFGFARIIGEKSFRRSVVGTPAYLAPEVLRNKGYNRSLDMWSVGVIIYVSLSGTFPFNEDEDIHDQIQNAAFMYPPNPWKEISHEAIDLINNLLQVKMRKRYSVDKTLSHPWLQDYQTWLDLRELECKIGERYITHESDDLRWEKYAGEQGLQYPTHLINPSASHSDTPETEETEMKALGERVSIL

[34] = molecular target: SIK2 (human) (UniProt Q9H0K1)
[35] = molecular target: SLK (human) (UniProt Q9H2G2)
[36] = molecular target: SRPK2 (human) (UniProt P78362)
[37] = molecular target: STK16 (human) (UniProt O75716)
STK16 (human), sequence (O75716 whole entry, looked up): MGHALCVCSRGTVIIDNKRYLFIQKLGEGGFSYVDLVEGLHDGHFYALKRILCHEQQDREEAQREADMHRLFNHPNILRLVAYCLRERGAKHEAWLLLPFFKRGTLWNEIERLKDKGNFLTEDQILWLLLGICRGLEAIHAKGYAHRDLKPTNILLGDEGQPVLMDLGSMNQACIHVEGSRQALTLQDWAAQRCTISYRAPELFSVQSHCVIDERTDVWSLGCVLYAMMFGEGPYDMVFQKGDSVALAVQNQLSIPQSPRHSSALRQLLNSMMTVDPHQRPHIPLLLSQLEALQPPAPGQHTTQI

[38] = molecular target: STK24 (human) (UniProt Q9Y6E0)
[39] = molecular target: TAOK2 (human) (UniProt Q9UL54)
[40] = molecular target: TAOK3 (human) (UniProt Q9H2K8)
[41] = molecular target: TNK2 (human) (UniProt Q07912)
[42] = molecular target: TYRO3 (human) (UniProt Q06418)

CAMK2A (human), sequence (Q9UQM7 whole entry, looked up): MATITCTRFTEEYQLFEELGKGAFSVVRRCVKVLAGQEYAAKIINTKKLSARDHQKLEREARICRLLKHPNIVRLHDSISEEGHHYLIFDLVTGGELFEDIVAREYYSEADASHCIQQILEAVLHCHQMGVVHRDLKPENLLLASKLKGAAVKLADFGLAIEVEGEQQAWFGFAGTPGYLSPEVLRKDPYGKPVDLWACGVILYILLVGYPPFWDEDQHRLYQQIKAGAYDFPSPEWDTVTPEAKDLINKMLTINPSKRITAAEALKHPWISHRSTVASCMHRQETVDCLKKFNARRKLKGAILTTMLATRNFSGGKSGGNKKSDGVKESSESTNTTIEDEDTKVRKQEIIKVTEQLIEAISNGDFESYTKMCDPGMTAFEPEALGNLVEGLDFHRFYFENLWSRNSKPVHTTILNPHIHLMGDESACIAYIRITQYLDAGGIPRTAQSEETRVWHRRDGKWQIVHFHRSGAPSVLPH

N#Cc1c[nH]c2c[nH]/c(=N\Cc3cccnc3)cc2/c1=N\c1ccc(F)c(Cl)c1
residual activity [1]: 87.4%
residual activity [2]: 107%
residual activity [3]: 90.1%
residual activity [4]: 91.8%
residual activity [5]: 105%
residual activity [6]: 105%
residual activity [7]: 87.4%
residual activity [8]: 79.9%
residual activity [9]: 103%
residual activity [10]: 75.2%
residual activity [11]: 97.2%
residual activity [12]: 91.9%
residual activity [13]: 87.3%
residual activity [14]: 52.7%
residual activity [15]: 94.5%
residual activity [16]: 103%
residual activity [17]: 84.5%
residual activity [18]: 83.6%
residual activity [19]: 93.2%
residual activity [20]: 99%
residual activity [21]: 92.9%
residual activity [22]: 95.6%
residual activity [23]: 105%
residual activity [24]: 118%
residual activity [25]: 100%
residual activity [26]: 89.6%
residual activity [27]: 105%
residual activity [28]: 87.7%
residual activity [29]: 124%
residual activity [30]: 110%
residual activity [31]: 92.2%
residual activity [32]: 101%
residual activity [33]: 94.5%
residual activity [34]: 97.6%
residual activity [35]: 86.6%
residual activity [36]: 101%
residual activity [37]: 93.8%
residual activity [38]: 95.6%
residual activity [39]: 86.1%
residual activity [40]: 99.2%
residual activity [41]: 89.9%
residual activity [42]: 98%

CN(C)c1ccc(/C=C2\C(=O)Nc3ccccc32)cc1
residual activity [1]: 100%
residual activity [2]: 99.7%
residual activity [3]: 61.4%
residual activity [4]: 91.1%
residual activity [5]: 106%
residual activity [6]: 98.6%
residual activity [7]: 99.4%
residual activity [8]: 99.7%
residual activity [9]: 101%
residual activity [10]: 98.6%
residual activity [11]: 100%
residual activity [12]: 103%
residual activity [13]: 103%
residual activity [14]: 103%
residual activity [15]: 93.7%
residual activity [16]: 98.2%
residual activity [17]: 90%
residual activity [18]: 15.3%
residual activity [19]: 106%
residual activity [20]: 94.8%
residual activity [21]: 45.6%
residual activity [22]: 96.8%
residual activity [23]: 99.4%
residual activity [24]: 67.7%
residual activity [25]: 103%
residual activity [26]: 106%
residual activity [27]: 90.5%
residual activity [28]: 106%
residual activity [29]: 95%
residual activity [30]: 111%
residual activity [31]: 104%
residual activity [32]: 92.6%
residual activity [33]: 100%
residual activity [34]: 101%
residual activity [35]: 103%
residual activity [36]: 100%
residual activity [37]: 87.9%
residual activity [38]: 96.7%
residual activity [39]: 102%
residual activity [40]: 95.1%
residual activity [41]: 101%
residual activity [42]: 92.7%

COc1ccc(Cl)cc1NC(=O)Nc1cc(C)nc2ccccc12
residual activity [1]: 91.2%
residual activity [2]: 99.2%
residual activity [3]: 95.9%
residual activity [4]: 99.9%
residual activity [5]: 101%
residual activity [6]: 113%
residual activity [7]: 101%
residual activity [8]: 97.7%
residual activity [9]: 95.7%
residual activity [10]: 96%
residual activity [11]: 96.5%
residual activity [12]: 97.7%
residual activity [13]: 98.8%
residual activity [14]: 103%
residual activity [15]: 88.6%
residual activity [16]: 96.9%
residual activity [17]: 92%
residual activity [18]: 94.4%
residual activity [19]: 101%
residual activity [20]: 99.6%
residual activity [21]: 102%
residual activity [22]: 87.3%
residual activity [23]: 94.1%
residual activity [24]: 84.9%
residual activity [25]: 105%
residual activity [26]: 82.4%
residual activity [27]: 95.7%
residual activity [28]: 101%
residual activity [29]: 97.6%
residual activity [30]: 102%
residual activity [31]: 101%
residual activity [32]: 99.7%
residual activity [33]: 96.6%
residual activity [34]: 87.8%
residual activity [35]: 98.8%
residual activity [36]: 94.9%
residual activity [37]: 105%
residual activity [38]: 81.6%
residual activity [39]: 98.2%
residual activity [40]: 105%
residual activity [41]: 102%
residual activity [42]: 98.9%

CS(=O)(=O)CCNCc1ccc(-c2ccc3ncnc(Nc4ccc(OCc5cccc(F)c5)c(Cl)c4)c3c2)o1
residual activity [1]: 97.3%
residual activity [2]: 104%
residual activity [3]: 98.4%
residual activity [4]: 90.9%
residual activity [5]: 98.6%
residual activity [6]: 98.8%
residual activity [7]: 109%
residual activity [8]: 95.1%
residual activity [9]: 104%
residual activity [10]: 101%
residual activity [11]: 101%
residual activity [12]: 107%
residual activity [13]: 108%
residual activity [14]: 101%
residual activity [15]: 99.3%
residual activity [16]: 96.4%
residual activity [17]: 84.8%
residual activity [18]: 92.6%
residual activity [19]: 104%
residual activity [20]: 101%
residual activity [21]: 98.4%
residual activity [22]: 100%
residual activity [23]: 106%
residual activity [24]: 109%
residual activity [25]: 98.1%
residual activity [26]: 92.2%
residual activity [27]: 90.7%
residual activity [28]: 105%
residual activity [29]: 101%
residual activity [30]: 103%
residual activity [31]: 96%
residual activity [32]: 98%
residual activity [33]: 99.4%
residual activity [34]: 101%
residual activity [35]: 85.1%
residual activity [36]: 88%
residual activity [37]: 97.1%
residual activity [38]: 106%
residual activity [39]: 105%
residual activity [40]: 101%
residual activity [41]: 97.5%
residual activity [42]: 98.9%
